# In patent US20260097043A1, “NOVEL FORMULATIONS AND VEHICLES” (WisTa Laboratories Ltd., priority 2022, published 2026):
# How the values were obtained:
# [1] = format: in vivo, human; conditions: 4 mg MTC approximately twice weekly; MCI to moderate AD
# Method: Prior-filed PCT/EP2023/064369 (Example 3) describes the structure of a phase 3 clinical trial in mild to moderate AD in which different arms of participants were treated with MTC and LMTM respectively. This was a Phase 3, randomized, double-blind, outpatient trial to evaluate the safety, efficacy, and tolerability of LMTM in participants with severity ranging from mild cognitive impairment (MCI) to moderate AD. The MTC minipill was intended as a urinary discolourant placebo (in combination with a true placebo i.e. a blank minipill lacking any MTC or LMTM). […] Of patients receiving MTC 4 mg twice weekly, the majority (85%) were unexpectedly found to have blood levels of active drug above the threshold needed to produce a clinical effect.
# [2] = 4 mg twice weekly; prior-filed PCT/EP2023/064369; cited from earlier work
# [3] = Baddeley et al., 2015, cited from earlier work
# [4] = test system: TDP-43; conditions: 0.05 μM MT; SH-SY5Y cells; Yamashita et al 2009; cited from earlier work
# [5] = test system: huntingtin derivative containing a polyglutamine stretch of 102 residues; conditions: tested at 0, 10 and 100 μM; zebrafish; van Bebber et al. 2010; cited from earlier work
smiles,measurement,setting,value
"CN(C)c1ccc2nc3ccc(N(C)C)cc3[s+]c2c1 [MTC, 3,7-bisdimethylaminophenazothionium chloride]",clinical benefit,[1],showed clinical benefit
same,therapeutic benefits in treating Alzheimer's disease,[2],showed therapeutic benefits
"CN(C)c1ccc2c(c1)Sc1cc(N(C)C)ccc1N2 [LMTM, leuco-methylthioninium bis(hydromethanesulfonate)]",pharmaceutic properties (solubility and pKa),[3],superior pharmaceutic properties in terms of solubility and pKa
same,absorption limitations,[3]; compared with the MT+ form,not subject to the absorption limitations of the MT^+ form
"CN(C)c1ccc2nc3ccc(N(C)C)cc3[s+]c2c1 [MT, N3,N3,N7,N7-tetramethylphenothiazin-5-ium-3,7-diamine]",reduction of the number of TDP-43 aggregates,[4],50%
same,formation of huntingtin polyglutamine aggregates,[5],prevented the formation of such aggregates in zebrafish in a dose dependent manner
